One data set relates to PC12 cells. The experiment in a line: Neuritic growth / sprouting of PC12 cells in the presence of NGF. The class given is cell-based, rat. To be noted: 30 μM; for Neuritic sprouting: 3 days, NGF 10 ng/ml, relative to PREG. The protocol: Each molecule was tested in three culture wells. Measurements were taken for 200 cells per well using Scion Image software.
Neurite (neurite) length was measured for 200 cells per well after 2, 5, and 8 days of culture.
To rest the effect of selected molecules on neuritic growth, we first used the PC12 line, which has long been employed in neurobiological research. In the presence of NOF (nerve growth factor), the cells of this line, which arise from a rat pheochromocytoma, form neuritic extensions containing MAP-associated microtubules.
Stimulation of neuritic sprouting is conducted on PC12 cells differentiated in the presence of NGF (10 ng/ml) and the steroid being tested (30 μM) for 3 days. For each condition, the average length of the longest 200 neurites in each cell is measured simultaneously for 3 cultures.

Data set [1] concerns transgenic mice expressing the longest isoform of human tau protein. The experiment in a line: RotaRod motor incoordination in transgenic tau mice. The class given is in vivo, mouse. To be noted: subcutaneous implant releasing 0.38 mg per day for 90 days. The source says: FIG. 8: Effect of molecule 43B on the motor incoordination of transgenic mice expressing the longest isoform of human tau protein in their neurons. […] The maximum speed of rotation of the RotaRod drum before the […] falls is a measurement of motor coordination (higher values correspond to a better treatment effect).
In order to evaluate the therapeutic potential of 433 to treat Alzheimer-type neurodegenerative diseases, a homozygous transgenic line of mice, such as described by Götz (EMBO J. 1995; 14(7):1304-13), can be used.
These mice express the longest human tau protein isoform. They present symptoms of neurological dysfunction expressed as muscular weakness and a reduction in motor coordination which correlate histologically with the appearance of abnormal neurites and hyperphosphorylated tau proteins as is seen in Alzheimer's disease. This pathological phosphorylation decreases the affinity of tau for microtubules and favors its aggregation.
A breeding program was undertaken at Bicêtre and genotyping made it possible to select mice homozygous for the transgene. […] The implants released 0.38 mg of steroid per day for 90 days. The progression of motor incoordination was followed by repeated RotaRod tests.
A general note: In the rotarod test animals must keep their balance on a rotating rod.

In data set [2] the target is purified tubulin and MAP2 (Homo sapiens, UniProt P11137). Briefly: MAP2-induced polymerization of microtubules in vitro (optical density at 345 nm). It is filed as biochemical. The protocol:
Purified MAP2 and tubulin are mixed in the presence of GTP at 4° C. in a spectrophotometer cuvette. Polymerization is induced by heating at 37° C. and is followed by the increase in optical density (OD) which indicates the quantity of polymers formed.
This in vitro test measures the effect of molecules on the MAP2-induced polymerization of microtubules. This polymerization occurs when MAP2 proteins and tubulin are mixed at adequate concentrations in the presence of GTP. It is accompanied by an increase in optical density measured at 345 nm for 15 to 30 minutes with a UNICON spectrophotometer thermostated at 37° C. (FIG. 1).
Activity is measured by the increase in optical density at 345 nm of a mixture of purified tubulin and MAP2, incubated at 37° C. in the presence of GTP.

The subject of data set [3] is α-tubulin in rat hippocampus. The experiment in a line: Microtubule dynamics in rat hippocampus (Tyr/Glu-Tub ratio, Acet-Tub). The class given is in vivo. The following applies: 10 mg/kg subcutaneously, single administration. From the text:
Mean±SEM, n=6 per group. **P<0.01, *P<0.5 vs sesame oil.
The effects produced by neurosteroids were compared with those produced by acute administration of the antidepressant drug fluoxetine (selective serotonin reuptake inhibitor SSRI).
Neurosteroids and 3-Methoxy-PREG (43B) Levels

Another data set relates to PC12 cell line. Briefly: Cellular toxicity on the PC12 cell line. It is filed as cell-based, rat. To be noted: concentrations as high as solubility limits. As for the experimental part:
Cellular toxicity tests are carried out routinely on the PC12 cell line.

The next data set relates to Sprague Dawley rats. The experiment in a line: Forced swimming test (FST). The class given is in vivo, rat. The following applies: 10 mg/kg subcutaneously, 24, 5, 1 h before testing. The protocol: Drugs were administered following the traditional dosing regimen used in the FST consisting of three injections: 24, 5, 1 h before testing.
The FET is currently the most widely used animal model for assessing depression related behavior and antidepressant drug activity in rodents (Cryan et al., Neubiorev. 2005). Rats are placed in an inescapable cylinder of water where they develop an immobile posture believed to reflect a “depressive”-like state. The Lime rats spend immobile is decreased by drugs exerting antidepressant activity.
Additional behaviors can be detected in the FST; namely, climbing and swimming. It has been shown that swimming behavior is sensitive to SSRIs such as fluoxetine whereas climbing is sensitive to norepinephrine re-uptake inhibitors (NRI) such as desipramine.

Data set [4] has as its target T1, human progesterone receptor (PR) (Homo sapiens, UniProt P06401).
T1 construct: expressed in transfected cells; host or cells: HEK293T cells
T1 sequence (P06401 1-933): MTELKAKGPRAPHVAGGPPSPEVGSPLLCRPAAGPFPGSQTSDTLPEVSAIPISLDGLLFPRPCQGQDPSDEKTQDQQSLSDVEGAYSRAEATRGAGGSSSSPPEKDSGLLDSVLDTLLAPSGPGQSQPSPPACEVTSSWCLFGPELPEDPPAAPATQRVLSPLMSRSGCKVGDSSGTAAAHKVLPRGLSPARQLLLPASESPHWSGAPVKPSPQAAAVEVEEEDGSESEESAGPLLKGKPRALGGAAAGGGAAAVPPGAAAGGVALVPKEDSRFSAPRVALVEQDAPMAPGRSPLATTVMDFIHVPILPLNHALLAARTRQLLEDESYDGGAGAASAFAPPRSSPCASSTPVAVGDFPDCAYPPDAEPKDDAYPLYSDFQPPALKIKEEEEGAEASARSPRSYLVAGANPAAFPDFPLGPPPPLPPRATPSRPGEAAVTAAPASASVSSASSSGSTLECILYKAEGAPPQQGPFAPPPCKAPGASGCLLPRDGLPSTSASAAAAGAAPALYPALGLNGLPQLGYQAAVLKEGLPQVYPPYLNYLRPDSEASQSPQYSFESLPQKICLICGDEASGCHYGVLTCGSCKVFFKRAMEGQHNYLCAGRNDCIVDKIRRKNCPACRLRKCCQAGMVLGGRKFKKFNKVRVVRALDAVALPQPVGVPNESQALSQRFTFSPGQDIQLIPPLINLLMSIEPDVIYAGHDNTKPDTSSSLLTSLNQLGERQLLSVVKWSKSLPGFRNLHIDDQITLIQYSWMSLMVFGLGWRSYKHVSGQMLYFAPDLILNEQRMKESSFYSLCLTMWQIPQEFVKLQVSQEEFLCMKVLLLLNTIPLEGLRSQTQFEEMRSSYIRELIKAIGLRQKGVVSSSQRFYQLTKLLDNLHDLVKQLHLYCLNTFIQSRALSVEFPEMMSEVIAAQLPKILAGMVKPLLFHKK
The experiment in a line: Test of progesterone receptor antagonist activity (luciferase transactivation, HEK293T). The class given is cell-based. The following applies: with progesterone 1 nM, increasing amounts. The protocol:
(§1) The main experimental setting used is the following: HEK293T cells were transiently transfected, using calcium phosphate precipitation technology, with expression receptors pSG5hPR (which permits expression of human progesterone receptor (PR)), pFC31-luc (contains the luciferase gene under the control of the MTV promoter, which is in turn activated by binding of a progestin to progesterone receptor) and pcbetagal (which permits expression of betagalactosidase), and cultured during 24 hours with increasing amounts of various compositions: • 1. […] Test of progesterone receptor […] activity: transfected cells were cultured with progesterone (1 nM) and increasing amounts of RU486 (a well-known progesterone receptor antagonist) or 3-methoxy-pregnenolone. • With this setting, a compound with progesterone receptor antagonist activity competes with progesterone for the occupation of progesterone receptor and results in a progressive loss of transactivation activity when the amount of this compound is increased compared to progesterone. Results

Data set [5] addresses T1, human progesterone receptor (PR). The experiment in a line: Test of progesterone receptor agonist activity (luciferase transactivation, HEK293T). To be noted: 24 hours, increasing amounts. The class given is cell-based. The protocol: as §1
The mark [6] stands for this setting: 40 μM, compared to solvent alone.

Sequence of purified tubulin and MAP2 (P11137 whole entry): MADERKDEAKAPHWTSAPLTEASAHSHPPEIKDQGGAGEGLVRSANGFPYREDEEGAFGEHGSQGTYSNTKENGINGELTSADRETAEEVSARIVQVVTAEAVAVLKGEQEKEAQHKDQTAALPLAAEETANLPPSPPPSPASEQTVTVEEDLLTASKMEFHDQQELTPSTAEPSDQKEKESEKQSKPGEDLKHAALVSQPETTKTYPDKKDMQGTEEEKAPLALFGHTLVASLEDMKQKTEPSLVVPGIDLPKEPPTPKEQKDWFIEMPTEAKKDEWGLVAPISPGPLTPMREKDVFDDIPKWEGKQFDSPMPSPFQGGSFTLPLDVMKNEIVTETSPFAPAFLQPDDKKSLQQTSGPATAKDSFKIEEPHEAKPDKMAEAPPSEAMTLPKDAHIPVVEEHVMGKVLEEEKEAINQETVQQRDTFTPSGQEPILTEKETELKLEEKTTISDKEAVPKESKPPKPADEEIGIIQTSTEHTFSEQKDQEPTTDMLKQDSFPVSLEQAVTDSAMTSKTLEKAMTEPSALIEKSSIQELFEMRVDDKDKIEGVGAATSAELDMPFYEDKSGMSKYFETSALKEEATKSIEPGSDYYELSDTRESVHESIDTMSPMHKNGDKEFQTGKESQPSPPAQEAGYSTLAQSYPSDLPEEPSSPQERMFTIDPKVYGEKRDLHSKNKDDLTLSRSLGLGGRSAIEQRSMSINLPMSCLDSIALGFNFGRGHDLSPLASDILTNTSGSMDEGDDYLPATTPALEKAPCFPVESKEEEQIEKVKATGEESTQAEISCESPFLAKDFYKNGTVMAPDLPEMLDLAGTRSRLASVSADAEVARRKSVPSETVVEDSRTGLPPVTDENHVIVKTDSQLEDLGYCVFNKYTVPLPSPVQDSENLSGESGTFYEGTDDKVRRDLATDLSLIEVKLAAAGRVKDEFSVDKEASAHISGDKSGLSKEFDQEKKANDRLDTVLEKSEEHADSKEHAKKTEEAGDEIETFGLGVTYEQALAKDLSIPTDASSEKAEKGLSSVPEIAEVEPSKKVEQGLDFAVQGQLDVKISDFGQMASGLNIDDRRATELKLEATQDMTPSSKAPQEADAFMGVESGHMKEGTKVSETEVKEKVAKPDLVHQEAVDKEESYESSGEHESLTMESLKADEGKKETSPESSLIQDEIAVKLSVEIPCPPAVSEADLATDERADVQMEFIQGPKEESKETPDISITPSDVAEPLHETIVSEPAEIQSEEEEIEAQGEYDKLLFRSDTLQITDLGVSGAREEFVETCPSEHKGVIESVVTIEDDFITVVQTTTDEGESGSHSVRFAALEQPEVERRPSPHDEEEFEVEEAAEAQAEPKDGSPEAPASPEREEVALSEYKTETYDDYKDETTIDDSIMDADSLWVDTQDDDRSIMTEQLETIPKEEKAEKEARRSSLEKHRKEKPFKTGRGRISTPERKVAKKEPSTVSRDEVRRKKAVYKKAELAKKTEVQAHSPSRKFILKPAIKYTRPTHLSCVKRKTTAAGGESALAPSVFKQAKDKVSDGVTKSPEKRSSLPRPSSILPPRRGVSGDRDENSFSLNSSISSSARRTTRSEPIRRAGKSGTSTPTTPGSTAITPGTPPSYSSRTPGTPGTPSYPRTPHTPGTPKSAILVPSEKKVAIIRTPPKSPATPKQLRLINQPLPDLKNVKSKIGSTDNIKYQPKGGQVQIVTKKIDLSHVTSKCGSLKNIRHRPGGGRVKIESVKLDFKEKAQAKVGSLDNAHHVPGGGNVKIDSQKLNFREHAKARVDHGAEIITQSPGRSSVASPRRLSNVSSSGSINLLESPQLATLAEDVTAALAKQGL

For the molecule `CO[C@H]1CC[C@@]2(C)[C@@H](CC[C@@H]3[C@@H]2CC[C@]2(C)[C@@H](C(C)=O)CC[C@@H]32)C1` [3β-methoxy-5α-pregnane-20-one], the Neuritic sprouting entry with PC12 cells is recorded as “+++”.

As for `CO[C@H]1CC[C@@]2(C)C(CCC3C2CC[C@@]2(C)C3CC[C@@H]2[C@@H](C)O)C1` (stereo partly drawn) [3β-methoxy-5α-pregnane-20β-ol], the Neuritic sprouting entry in the data set with PC12 cells was “++ (equal to)”.

For `CO[C@H]1CC[C@@]2(C)C(=CC[C@@H]3[C@@H]2CC[C@@]2(C)[C@H]3CC[C@@]2(C(C)=O)C(Cl)Cl)C1` [3β-methoxy-pregna-5-ene-20-one-17α-dichloromethyl], in the data set with PC12 cells, the Neuritic sprouting result is reported as “+++”.

For `CC(=O)[C@H]1CC[C@H]2[C@@H]3CC=C4C[C@@H](O)CC[C@]4(C)[C@H]3CC[C@]12C` [PREG, pregnenolone], the “increase in the average length of the neurites” value in the data set with PC12 cells (3 days of culture, NGF) is given as 60%. In the data set on PC12 cells, the Neuritic sprouting entry is on record as “++ (equal to)”. Further, in data set [1], the “motor dysfunction (RotaRod)” value is “Only the 3-methoxy-PREG had a beneficial effect”. For the same molecule, in data set [2], the microtubule polymerization result is “activates microtubule polymerization”. In data set [2] (setting [6]), the “Lag time of microtubule polymerization” value is “decreased”; the “polymerization rate and quantity of microtubules” value is “clearly increase”. For the same molecule, in data set [3], the “Acet-Tub (stable acetylated α-tubulin)” value is “significantly decreased”. Further, the cellular toxicity entry in the data set with PC12 cell line is listed as “do not demonstrate toxicity”. In addition, in the data set with Sprague Dawley rats, the “rat climbing behavior in the FST” value is given as “not changed” and the “rat swimming in the FST” value is listed as “significantly increased”.

As for `CC(=O)[C@@]12C[C@@H]1C[C@H]1[C@@H]3CC=C4C[C@@H](O)CC[C@]4(C)[C@H]3CC[C@@]12C` [PREG-16α,17α-methylene], in the data set with PC12 cells, the Neuritic sprouting result is on record as “+ (lower than)”.

In the case of `CC(=O)[C@H]1[C@H](C)C[C@H]2[C@@H]3CC=C4C[C@@H](O)CC[C@]4(C)[C@H]3CC[C@@]21C` [PREG-16α-methyl], the Neuritic sprouting entry in the data set on PC12 cells is listed as “++ (equal to)”.

`CC(=O)O[C@H](C)[C@H]1CC[C@H]2[C@@H]3CC=C4C[C@@H](O)CC[C@]4(C)[C@H]3CC[C@]12C` [Pregna-5-ene-3β,20β-diol-20-acetate]: the Neuritic sprouting entry in the data set with PC12 cells is “++ (equal to)”.

With `CC#C[C@]1(O)CC[C@H]2[C@@H]3CCC4=CC(=O)CCC4=C3[C@@H](c3ccc(N(C)C)cc3)C[C@@]21C` [RU486], the “progesterone receptor antagonist activity” value in data set [4] is “very high antagonist activity”.

`CNCCC(Oc1ccc(C(F)(F)F)cc1)c1ccccc1` (centres unmarked) [fluoxetine]: the “Acet-Tub (stable acetylated α-tubulin)” value in data set [3] is “tendency to increase”. The Tyr/Glu-Tub ratio entry in data set [3] (3 h) was “did not change”.

With `CC(=O)[C@H]1CC[C@H]2[C@@H]3CCC4=CC(=O)CC[C@]4(C)[C@H]3CC[C@]12C` [progesterone, reference compound], the “progesterone receptor agonist activity (transactivation)” value in data set [5] is on record as “permits a transactivation activity leading to the expression of luciferase”. In addition, the microtubule polymerization result in data set [2] is “do not stimulate polymerization”.

With PREG-16α,17α-epoxy, in the data set on PC12 cells, the Neuritic sprouting entry is on record as “+ (lower than)”.

Take pregnenolone sulfate: the microtubule polymerization result in data set [2] is “do not stimulate polymerization”.

The record behind these values is patent US9339508B2, “Use of 3-methoxy-pregnenolone for the preparation of a drug for treating a traumatic brain injury” (MAPREG, priority 2003, dated 2016).
